The nature of this data set: Human HepG2 cell viability assay in 384 well format. To be noted: HepG2 cells, read-out: Inhibition. In kind it is toxicity, cell-based. The arrangement: dose 125 nL, time 70.5 hour; cytotoxicity at 70.5 h: concentration not given beside the values.
Turning to `CC(=O)OCC1CCCCN1C(=O)c1ccc(Cn2ccnc2)o1` (centres undefined), the cytotoxicity at 70.5 h was determined as 22.8%.

For `Cn1cc(C(C)(O)CNC(=O)c2ccc(Br)s2)cn1` (centres undefined), the cytotoxicity at 70.5 h is 48.4%.

Turning to `N#Cc1cccc(OCC(=O)N(Cc2ccncc2)C2CC2)c1`, the cytotoxicity at 70.5 h is -10.3%.

Consider `CCS(=O)(=O)N1CCN(C(C)c2ccccc2OC)CC1` (centres undefined), for which the cytotoxicity at 70.5 h is -10.2%.

Take `CC(=O)N1CCCc2cc(NC(=O)NCCc3cnn(C)c3)ccc21`: the cytotoxicity at 70.5 h was -2.87%.

Consider `Cc1ccccc1C(C)(C)CNC(=O)CN(C)c1cnccn1`, for which the cytotoxicity at 70.5 h is -0.621%.

On to `CCOC1CCCN(C(=O)Nc2cnn(CC(F)F)c2)C1` (centres undefined), for which the cytotoxicity at 70.5 h is -9.21%.

As for `c1nc(N2CCN(Cc3nnnn3C3CC3)CC2)c2sccc2n1`, the cytotoxicity at 70.5 h worked out at 2.44%.

Consider `Cc1nsc(N2CCc3sccc3C2)n1`, for which the cytotoxicity at 70.5 h is -1.49%.

On to `OCC1CN(Cc2nc(C(F)(F)F)cs2)c2ccccc2O1` (centres undefined), for which the cytotoxicity at 70.5 h is -9.55%.

Take `Cc1nc(CN2CC(CO)Oc3ccccc32)sc1C` (centres undefined): the cytotoxicity at 70.5 h is -3.25%.

On to `CC(C)C1CN(C(=O)Nc2cnn(CC(F)F)c2)CCS1` (centres undefined), for which the cytotoxicity at 70.5 h is 5.93%.

Take `CN(C)S(=O)(=O)c1ccc(CN2CCC(c3ccccc3)C2)o1` (centres undefined): the cytotoxicity at 70.5 h was found to be 4.6%.

For the compound `Cc1cccc(C(C)(C)CNC(=O)CN(C)c2cnccn2)c1`, the cytotoxicity at 70.5 h was -2.49%.

In the case of `O=C(Cc1ccon1)NC1CCCN(c2ccccc2F)C1=O` (centres undefined), the cytotoxicity at 70.5 h worked out at 3.76%.

Regarding `NCc1ccnc(Oc2ccccc2)c1`, the cytotoxicity at 70.5 h was -8.2%.

Turning to `Cc1noc(C)c1CCc1nc(C2CCOC2)no1` (centres undefined), the cytotoxicity at 70.5 h was -11.1%.

Take `CN1CC(C(=O)NCCc2ccc3c(c2)OCO3)CC1=O` (centres undefined): the cytotoxicity at 70.5 h was -8.14%.

For the compound `NC(=O)NC(CC(=O)N1CCc2sccc2C1)c1ccccc1F` (centres undefined), the cytotoxicity at 70.5 h was -17.5%.

Regarding `Cn1ncc2c1CCCC2NCc1cccnc1` (centres undefined), the cytotoxicity at 70.5 h was -18.9%.

Take `CC(c1nnc(-c2ccccc2)o1)N1CCC(Nc2ccccc2)CC1` (centres undefined): the cytotoxicity at 70.5 h is 8.58%.

As for `O=C(CNc1ccc(OCC2CCOCC2)cc1)NCc1ccco1`, the cytotoxicity at 70.5 h is -20.8%.

`CSc1ccc(OCCN2CCNC(=O)CC2)cc1`: the cytotoxicity at 70.5 h was -7.88%.

As to `COCCOc1ncccc1NCc1nc2ccccc2n1C`, the cytotoxicity at 70.5 h is -15.1%.

Regarding `CC(C)(C)Oc1ccc(NCC(=O)NCc2ccco2)cc1`, the cytotoxicity at 70.5 h is -18.5%.

`Cc1noc(CCCc2nc(C3CCOC3)no2)n1` (centres undefined): the cytotoxicity at 70.5 h was -18.7%.

Turning to `COc1ccccc1CN(Cc1nc(Cc2ccccc2)no1)C1CC1`, the cytotoxicity at 70.5 h was -10.7%.

For the compound `COCc1nn(Cc2ccc(Cl)s2)c(=O)o1`, the cytotoxicity at 70.5 h was -13.7%.

For the compound `CC(C)c1nc(C2CCCN2CCNS(C)(=O)=O)no1` (centres undefined), the cytotoxicity at 70.5 h is -19.2%.

On to `CC(NCC(=O)N1CCc2sccc2C1)c1ccccc1F` (centres undefined), for which the cytotoxicity at 70.5 h was -15.8%.

On to `O=C1C(N2CCOCC2)CCCN1Cc1cccc(C(F)(F)F)c1` (centres undefined), for which the cytotoxicity at 70.5 h is -17.4%.

With `O=C1C(N2CC[C@@H](O)C2)CCCN1Cc1cccc(C(F)(F)F)c1` (some centres undefined), the cytotoxicity at 70.5 h was -18.9%.

On to `NCc1ccnc(Oc2ccc(F)cc2)c1`, for which the cytotoxicity at 70.5 h was -17%.

For the compound `CC(=O)N1CCCN(C(=O)NCCCNS(C)(=O)=O)CC1`, the cytotoxicity at 70.5 h was found to be 9.32%.

On to `CC(=O)N1CCN(C(=O)NCCCN(C(C)C)S(C)(=O)=O)CC1`, for which the cytotoxicity at 70.5 h was -8.44%.

`Cc1cnn(C2CN(Cc3noc(C4CC4)n3)C2)c1`: the cytotoxicity at 70.5 h was -4.77%.

Turning to `CSCCC(NC(N)=O)C(=O)N1CCC(Cc2ccccc2)CC1` (centres undefined), the cytotoxicity at 70.5 h is -3.12%.

For the compound `COc1cccc(N2CCC(CNc3cc(C)nc4ncnn34)C2)c1` (centres undefined), the cytotoxicity at 70.5 h was -1.68%.

Consider `CC(NC(=O)C1(NC(=O)c2ccc3[nH]ncc3c2)CCCC1)C1CC1` (centres undefined), for which the cytotoxicity at 70.5 h was -5.24%.

On to `N#Cc1cccc(S(=O)(=O)NC(=O)CCOCC(F)(F)F)c1`, for which the cytotoxicity at 70.5 h is -3.71%.

Turning to `COc1c(C(=O)N2CCC(CSc3ccccc3)C2)c(C)nn1C` (centres undefined), the cytotoxicity at 70.5 h turned out to be 1.84%.

Take `C[S+]([O-])CCNC(=O)Nc1cc(F)ccc1-n1cccn1` (centres undefined): the cytotoxicity at 70.5 h amounted to 15.9%.

As for `CS(=O)(=O)N1CCC(Nc2ccnc3ccc(Cl)cc23)CC1`, the cytotoxicity at 70.5 h was -3.71%.

Consider `CN(CCc1ccc2c(c1)CCO2)C1CCS(=O)(=O)CC1`, for which the cytotoxicity at 70.5 h was 16.1%.

For `Cc1ccc(S(C)(=O)=O)cc1C(=O)NS(C)(=O)=O`, the cytotoxicity at 70.5 h is -7.69%.

For `CCc1ccc(CC)c(NCC(=O)N2CCCC(NC(C)=O)C2)c1` (centres undefined), the cytotoxicity at 70.5 h was -6.55%.

Regarding `CCC(C)NS(=O)(=O)Cc1cccc(NC(=O)C(C)C)c1` (centres undefined), the cytotoxicity at 70.5 h was -2.19%.

With `CC(=O)NC1CCCN(C(=O)CNc2cc(Cl)cc(Cl)c2)C1` (centres undefined), the cytotoxicity at 70.5 h was -5.65%.

Turning to `COc1ccc(C)c(NC(=O)NCc2cccc(N(C)C)n2)c1`, the cytotoxicity at 70.5 h was -6.19%.

For `COCc1c(Cl)cccc1NC(=O)NCc1cccc(N(C)C)n1`, the cytotoxicity at 70.5 h came out at 1.02%.

With `COc1c(C(=O)N2CCC(COCc3ccccc3)C2)c(C)nn1C` (centres undefined), the cytotoxicity at 70.5 h is -0.0423%.

On to `CC(C)C(O)CCNC(=O)Nc1cc(F)ccc1-n1cccn1` (centres undefined), for which the cytotoxicity at 70.5 h was 14.9%.

In the case of `Cc1cnn(C2CN(Cc3nnc(C4CC4)o3)C2)c1`, the cytotoxicity at 70.5 h was -10.1%.

As for `CC(C)c1nc(C2CCCN2c2ccnc(C3CCCC3)n2)no1` (centres undefined), the cytotoxicity at 70.5 h is -6.75%.

Turning to `Cc1cnn(C2CN(Cc3noc(C)n3)C2)c1`, the cytotoxicity at 70.5 h is -6.5%.

As to `Cc1cc(=O)n2nc(Oc3cccc(I)c3)sc2n1`, the cytotoxicity at 70.5 h was -20.9%.

With `CN(C)c1ncccc1CNC(=O)NCC(c1cccs1)N(C)C` (centres undefined), the cytotoxicity at 70.5 h is -23.8%.

With `CN(C)CCn1c2c(ccc1=O)CCN(Cc1ccncc1)CC2`, the cytotoxicity at 70.5 h was -4.6%.

For the compound `Cc1noc(C)c1CN1CCn2cc(CN3CCOCC3)nc2C1`, the cytotoxicity at 70.5 h is -0.251%.

As for `COCCN(C)C(=O)c1nc2c(s1)CCCN2c1ccc(C)nn1`, the cytotoxicity at 70.5 h was -1.66%.

For the compound `O=C(CC1CC1)N1C[C@H]2CCN[C@H]2C1`, the cytotoxicity at 70.5 h is -4.97%.

As for `CC(C)(C)CC(=O)N1C[C@H]2CCN[C@H]2C1`, the cytotoxicity at 70.5 h was -2.71%.

For the compound `O=C1CO[C@@H]2CN(S(=O)(=O)c3ccc(F)cc3)C[C@H]2N1`, the cytotoxicity at 70.5 h was determined as 15.2%.

Consider `COCC1COCCC12CCN(S(=O)(=O)c1ccc(C)cc1)CC2` (centres undefined), for which the cytotoxicity at 70.5 h is -4.01%.

`CN(C)CCOCc1cncc2c1CCN(C(=O)c1cscn1)C2`: the cytotoxicity at 70.5 h was -3.85%.

As for `COc1cc(N2C[C@@H]3COC[C@@H](Cc4nc(C)no4)[C@@H]3C2)ncn1`, the cytotoxicity at 70.5 h was -7.51%.

In the case of `COCC(=O)N1CCC2(CC1)CN(CC1CC1)c1ccc(F)cc12`, the cytotoxicity at 70.5 h was found to be 2.37%.

`CC1c2ncc(Cn3cccn3)n2CCN1S(=O)(=O)C1CC1` (centres undefined): the cytotoxicity at 70.5 h is -5.83%.

In the case of `O=C(c1ccno1)N1CC[C@@H]2CN(C3CCOCC3)CCO[C@@H]2C1`, the cytotoxicity at 70.5 h is -5.94%.

Take `CSc1ccc(CNC2CCCc3c2cnn3C)cc1` (centres undefined): the cytotoxicity at 70.5 h was -8.39%.

Turning to `CC(C)(C)c1n[nH]cc1CNC1CCC(OCC(F)(F)F)CC1` (centres undefined), the cytotoxicity at 70.5 h is -11.2%.

Consider `CN(CCc1ccccn1)C(=O)c1cccs1`, for which the cytotoxicity at 70.5 h is -2.46%.

In the case of `CC(C)N(C)Cc1cncc2c1CCN(CC1CC1)C2`, the cytotoxicity at 70.5 h was 15.2%.

In the case of `Cc1cc(CN2C[C@H](OCC3CCOCC3)[C@H]3COC[C@H]32)oc1C`, the cytotoxicity at 70.5 h was -0.082%.

As to `O=C(C1CCOCC1)N1C[C@H]2CCC[C@@]2(COc2cccnc2)C1`, the cytotoxicity at 70.5 h is -1.29%.

As for `CN(C)CCN1C(=O)CCCC12CCCN(C(=O)c1cc[nH]n1)C2` (centres undefined), the cytotoxicity at 70.5 h is -4.9%.

Turning to `O=C(c1ccoc1)N1CCOC2(COCCN(CC3CC3)C2)C1` (centres undefined), the cytotoxicity at 70.5 h was -1.92%.

Turning to `c1cc(CN2CC[C@@H]3CN(c4cnccn4)C[C@@H]3C2)ccn1`, the cytotoxicity at 70.5 h was -3.4%.

As to `O=C(c1cscn1)N1CCc2c(COCC3CC3)cncc2C1`, the cytotoxicity at 70.5 h is -1.4%.

As to `CN(C)Cc1nc2c(o1)CN(S(=O)(=O)c1cccs1)C2`, the cytotoxicity at 70.5 h was -9.46%.

With `Cc1ccc(C(=O)N2CC[C@@H]3CN(C4CCOCC4)CCO[C@@H]3C2)o1`, the cytotoxicity at 70.5 h is -7.78%.

Take `O=S(=O)(c1cccs1)N1Cc2nc(CN3CCCCC3)oc2C1`: the cytotoxicity at 70.5 h was -8.94%.

As to `O=C(c1cccs1)N1CC[C@@H]2CN(C3CCOCC3)CCO[C@@H]2C1`, the cytotoxicity at 70.5 h is -6.31%.

Consider `Cc1ccoc1C(=O)N1CC[C@@H]2CN(C3CCOCC3)CCO[C@@H]2C1`, for which the cytotoxicity at 70.5 h is -0.955%.

As to `Cc1nnc(N2CCCC3(CN(c4ccccn4)CCO3)C2)o1` (centres undefined), the cytotoxicity at 70.5 h was determined as 1.16%.

As for `CN1C(=O)CCC12CCN(c1ccc(C#N)cn1)CC2`, the cytotoxicity at 70.5 h was -8.99%.

In the case of `c1cnc(N2C[C@H]3CCN(Cc4ccncc4)C[C@H]3C2)nc1`, the cytotoxicity at 70.5 h is -7.09%.

For `Cc1ccc(N2C[C@H]3CCN(Cc4ccncc4)C[C@H]3C2)nn1`, the cytotoxicity at 70.5 h was -9.91%.

For `CCc1ccc(S(=O)(=O)N2Cc3c(CN(C)C)nn(C)c3C2)cc1`, the cytotoxicity at 70.5 h was -5.86%.

For `CCOC(=O)[C@]12CCCN(Cc3cccs3)C[C@H]1CN(CCOC)C2`, the cytotoxicity at 70.5 h came to 1.08%.

Take `c1ccc(N2CC[C@H](OCC3CC3)[C@@H]2Cc2cccnc2)nc1`: the cytotoxicity at 70.5 h is -3.44%.

With `c1cncc(OC[C@@]23CCC[C@@H]2CN(CC2CCOCC2)C3)c1`, the cytotoxicity at 70.5 h was -1.42%.

Consider `CCOC(=O)[C@]12CCCN(Cc3cccs3)C[C@H]1CN(CC(C)C)C2`, for which the cytotoxicity at 70.5 h is -2.32%.

With `CCN1CCC2(C1)CN(S(=O)(=O)c1cn(C)cn1)C2`, the cytotoxicity at 70.5 h is -5.09%.

On to `O=C(c1ccncc1)N1CC[C@@H]2CN(C3CCOCC3)CCO[C@@H]2C1`, for which the cytotoxicity at 70.5 h is -9.58%.

`CC(C)CN1CCC2(C1)CN(S(=O)(=O)c1cn(C)cn1)C2`: the cytotoxicity at 70.5 h amounted to 4.36%.

`c1cnc(N2C[C@H]3CCN(CCN4CCCC4)C[C@H]3C2)cn1`: the cytotoxicity at 70.5 h was -5.43%.

Turning to `CC(C)N1CCO[C@H]2CN(Cc3cc[nH]n3)C[C@H]21`, the cytotoxicity at 70.5 h was -5.26%.

In the case of `COCCN1CCO[C@H]2CN(Cc3cccc(C)n3)C[C@H]21`, the cytotoxicity at 70.5 h was -5.32%.

The record behind these values is ChEMBL document CHEMBL3507680, “University of Dundee, Gates Library screen for HepG2 cell viability”.
